Source: BindingDB's records for patent US12173018 (Venatorx Pharmaceuticals, 2024)

Molecular target: T1, Peptidoglycan D,D-transpeptidase FtsI (UniProt P0AD68)
T1 sequence (P0AD68 whole entry): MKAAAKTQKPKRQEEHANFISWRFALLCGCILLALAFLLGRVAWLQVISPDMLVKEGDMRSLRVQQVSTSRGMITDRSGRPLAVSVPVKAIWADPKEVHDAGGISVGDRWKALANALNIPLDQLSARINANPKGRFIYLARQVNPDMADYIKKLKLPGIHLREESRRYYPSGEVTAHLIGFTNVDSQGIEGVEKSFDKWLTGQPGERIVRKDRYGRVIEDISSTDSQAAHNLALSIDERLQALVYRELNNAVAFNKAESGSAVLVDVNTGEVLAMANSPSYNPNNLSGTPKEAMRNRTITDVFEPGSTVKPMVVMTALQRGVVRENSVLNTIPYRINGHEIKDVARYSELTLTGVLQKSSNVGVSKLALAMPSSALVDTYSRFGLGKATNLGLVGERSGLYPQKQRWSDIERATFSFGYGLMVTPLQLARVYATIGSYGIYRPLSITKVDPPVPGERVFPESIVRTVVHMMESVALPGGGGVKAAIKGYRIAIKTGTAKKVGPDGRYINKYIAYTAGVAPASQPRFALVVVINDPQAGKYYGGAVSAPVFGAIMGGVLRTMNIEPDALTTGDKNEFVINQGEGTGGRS
Experiment: Fluorescence Polarization (FP) Competition Binding Assay
Procedure: To establish assay conditions for competition binding, an enzyme titration/saturation binding experiment was initially performed. Bocillin-FL was prepared at 0.2 μM in a buffer comprised of 50 mM Hepes (pH 8.0), 300 mM NaCl and 5% (v/v) glycerol. […] FP was measured immediately upon mixing (Excitation, 490 nm; Emission, 520 nm; g-factor, 0.96), using a Cytation3 (BioTek) microplate reader and measured continuously for up to 120 minutes. […] Bocillin-FL was added and the FP immediately measured for 60 minutes (90 minutes for PBP2).

Row | SMILES | EC50
1 | CCN1CCN(C(=O)NC(C(=O)N[C@H]2Cc3cccc(C(=O)O)c3OB2O)c2ccc(O)c(S(N)(=O)=O)c2)C(=O)C1=O (some centres not stated) [US12173018, Example 143] | < 30 µM
2 | NCCN1CCN(C(=O)N[C@@H](C(=O)N[C@H]2Cc3cccc(C(=O)O)c3OB2O)c2ccc(O)c(O)c2Cl)C(=O)C1=O [US12173018, Example 220] | < 30 µM
